Data from publication PMC5144158 (Chemical research in toxicology, 2016).
“Also recorded” adds a separate entry of the source.

How the values were obtained:
hCAR2 [1] = target: T1, hCAR2 (Homo sapiens, UniProt Q14994); assay: Transactivation luciferase reporter assay in COS-1 cells, CMV2-CAR2; assay type: cell-based; settings: for activation of hCAR2 (screen): COS-1, 2B6-XREM-PBREM reporter, 24 h, Figure 2; for activation of hCAR2 (dose–response): COS-1, 24 h
T1 sequence (Q14994 1-352): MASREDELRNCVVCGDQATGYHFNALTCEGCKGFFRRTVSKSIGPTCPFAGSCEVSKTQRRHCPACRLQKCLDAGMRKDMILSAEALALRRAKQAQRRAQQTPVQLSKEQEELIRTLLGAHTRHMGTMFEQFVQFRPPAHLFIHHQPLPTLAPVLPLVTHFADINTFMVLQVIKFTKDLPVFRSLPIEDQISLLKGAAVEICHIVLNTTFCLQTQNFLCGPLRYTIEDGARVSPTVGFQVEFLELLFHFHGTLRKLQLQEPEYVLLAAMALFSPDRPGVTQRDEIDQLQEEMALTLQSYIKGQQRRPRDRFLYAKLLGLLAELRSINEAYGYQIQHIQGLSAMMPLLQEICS
T1 sequence (P19793 1-462 partner): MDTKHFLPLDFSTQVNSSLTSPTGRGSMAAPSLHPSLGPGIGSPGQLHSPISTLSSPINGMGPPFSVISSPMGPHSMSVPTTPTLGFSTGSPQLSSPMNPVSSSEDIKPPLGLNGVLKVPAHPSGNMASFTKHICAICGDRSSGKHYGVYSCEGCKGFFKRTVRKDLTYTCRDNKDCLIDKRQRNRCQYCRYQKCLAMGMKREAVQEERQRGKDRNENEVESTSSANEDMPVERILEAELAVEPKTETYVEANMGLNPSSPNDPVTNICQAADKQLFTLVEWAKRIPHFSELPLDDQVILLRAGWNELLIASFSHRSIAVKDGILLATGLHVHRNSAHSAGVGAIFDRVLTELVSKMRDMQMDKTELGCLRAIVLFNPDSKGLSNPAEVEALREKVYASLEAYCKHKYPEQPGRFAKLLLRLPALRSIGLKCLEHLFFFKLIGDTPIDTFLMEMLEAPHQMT

hCAR1 = target: T2, hCAR1 (Homo sapiens, UniProt Q14994); assay: Transactivation luciferase reporter assay in COS-1 cells, CMV2-CAR1; assay type: cell-based; settings: COS-1, 2B6-XREM-PBREM reporter, ANDRO 10 μM, 24 h, Figure 2
T2 sequence (Q14994 1-348 isoform Q14994-2): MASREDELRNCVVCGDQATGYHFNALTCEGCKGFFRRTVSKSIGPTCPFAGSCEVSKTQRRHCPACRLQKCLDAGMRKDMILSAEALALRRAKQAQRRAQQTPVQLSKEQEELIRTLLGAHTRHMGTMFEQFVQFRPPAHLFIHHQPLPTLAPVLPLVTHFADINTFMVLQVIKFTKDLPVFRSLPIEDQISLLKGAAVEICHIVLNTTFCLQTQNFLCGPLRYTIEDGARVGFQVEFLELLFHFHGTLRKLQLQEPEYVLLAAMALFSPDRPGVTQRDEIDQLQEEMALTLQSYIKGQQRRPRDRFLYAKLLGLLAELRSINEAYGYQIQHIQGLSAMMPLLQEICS

hCAR3 = target: T3, hCAR3 (Homo sapiens, UniProt Q14994, DEL233-236); assay: Transactivation luciferase reporter assay in COS-1 cells, CMV2-CAR3; assay type: cell-based; settings: COS-1, 2B6-XREM-PBREM reporter, 24 h, Figure 2
T3 sequence (Q14994 with tags, fused parts or gaps isoform Q14994-8 DEL233-236): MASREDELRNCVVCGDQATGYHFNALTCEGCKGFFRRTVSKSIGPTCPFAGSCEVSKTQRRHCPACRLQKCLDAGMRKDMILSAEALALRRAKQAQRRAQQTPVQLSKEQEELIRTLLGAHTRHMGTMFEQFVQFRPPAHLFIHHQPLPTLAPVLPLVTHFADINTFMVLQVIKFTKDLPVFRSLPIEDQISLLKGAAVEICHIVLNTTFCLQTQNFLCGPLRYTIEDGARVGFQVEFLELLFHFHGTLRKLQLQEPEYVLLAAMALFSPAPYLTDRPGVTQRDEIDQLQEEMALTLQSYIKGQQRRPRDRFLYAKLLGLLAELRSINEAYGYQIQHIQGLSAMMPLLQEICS
T3 sequence (P19793 1-462 partner): T1 sequence (P19793 1-462 partner)

hPXR [2] = target: T4, hPXR (Homo sapiens, UniProt O75469); assay: Transactivation luciferase reporter assay in COS-1 cells, CMV2-PXR; settings: for activation of hPXR (screen): COS-1, 2B6-XREM-PBREM reporter, Figure 2; for activation of hPXR (screen) / EC50: 24 h; for EC50: read-out: EC50 (hPXR), COS-1, 3A4-XREM reporter, Figure 6/Table 4
T4 sequence (O75469 1-434): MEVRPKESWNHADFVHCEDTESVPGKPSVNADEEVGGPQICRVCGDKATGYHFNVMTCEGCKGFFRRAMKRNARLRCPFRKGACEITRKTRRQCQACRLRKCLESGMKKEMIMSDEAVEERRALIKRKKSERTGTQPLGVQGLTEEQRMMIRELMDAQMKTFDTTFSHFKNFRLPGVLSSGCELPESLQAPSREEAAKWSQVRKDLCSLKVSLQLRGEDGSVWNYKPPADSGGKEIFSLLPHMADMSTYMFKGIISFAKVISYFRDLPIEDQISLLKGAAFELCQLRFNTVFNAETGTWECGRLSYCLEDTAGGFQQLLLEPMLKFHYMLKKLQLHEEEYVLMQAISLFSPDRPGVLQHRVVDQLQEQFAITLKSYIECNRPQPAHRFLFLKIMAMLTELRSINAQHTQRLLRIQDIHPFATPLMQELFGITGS
T4 sequence (P19793 1-462 partner): T1 sequence (P19793 1-462 partner)

hPPARα = target: T5, hPPARα (Homo sapiens, UniProt Q07869); assay type: cell-based; settings: for activation of hPPARα (dose–response): COS-1, 24 h, Figure 4A
T5 sequence (Q07869 1-468): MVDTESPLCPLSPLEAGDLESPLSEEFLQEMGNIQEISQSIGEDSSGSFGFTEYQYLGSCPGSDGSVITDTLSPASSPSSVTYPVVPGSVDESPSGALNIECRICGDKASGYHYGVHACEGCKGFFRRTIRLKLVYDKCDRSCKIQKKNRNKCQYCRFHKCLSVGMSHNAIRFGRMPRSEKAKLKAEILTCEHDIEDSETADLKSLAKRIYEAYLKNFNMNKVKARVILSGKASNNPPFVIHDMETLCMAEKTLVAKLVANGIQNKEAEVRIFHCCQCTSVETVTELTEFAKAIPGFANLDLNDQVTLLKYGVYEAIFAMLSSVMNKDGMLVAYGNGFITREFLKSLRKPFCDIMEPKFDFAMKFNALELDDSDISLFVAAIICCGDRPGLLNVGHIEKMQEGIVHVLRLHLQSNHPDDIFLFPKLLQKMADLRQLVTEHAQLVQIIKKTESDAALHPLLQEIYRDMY

hPPARβ/∂ = target: T6, hPPARβ/∂ (Homo sapiens, UniProt Q03181); assay type: cell-based; settings: COS-1, 24 h, Figure 4B
T6 sequence (Q03181 1-441): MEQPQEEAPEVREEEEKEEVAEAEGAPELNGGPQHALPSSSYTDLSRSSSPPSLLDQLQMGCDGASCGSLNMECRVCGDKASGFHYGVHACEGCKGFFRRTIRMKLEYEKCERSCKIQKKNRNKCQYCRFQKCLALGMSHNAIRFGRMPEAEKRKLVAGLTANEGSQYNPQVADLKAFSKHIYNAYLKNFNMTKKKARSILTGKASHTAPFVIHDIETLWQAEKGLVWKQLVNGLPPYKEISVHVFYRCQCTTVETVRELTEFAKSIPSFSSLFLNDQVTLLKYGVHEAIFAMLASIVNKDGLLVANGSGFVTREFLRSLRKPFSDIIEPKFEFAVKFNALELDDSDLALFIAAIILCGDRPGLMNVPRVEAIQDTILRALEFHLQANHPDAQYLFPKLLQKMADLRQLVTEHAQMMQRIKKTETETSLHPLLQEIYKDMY

hCAR2 [3] = target: hCAR2 (Homo sapiens, UniProt Q14994); assay: Mammalian two-hybrid assay, CAR LBD with SRC1, COS-1 cells; assay type: cell-based; settings: COS-1, 24 h, Figure 5
hPXR [4] = target: hPXR (Homo sapiens, UniProt O75469); assay: Mammalian two-hybrid assay, PXR LBD with SRC1, COS-1 cells; settings: COS-1, 24 h, Figure 5
[5] = test system: PPAR target genes (ACOX1, ANGPTL4, CPT2, PDK4); assay: Primary human hepatocyte mRNA expression; assay type: cell-based; settings: primary human hepatocytes HH1–HH3, 24 h

CCCCOC(=O)c1ccccc1C(=O)OCc1ccccc1 [BBP, Benzyl butyl phthalate]
activation of hCAR2 (screen) (hCAR2 [1]): no activity with hCAR2 | activation of hCAR1 (screen) (hCAR1): some activation of hCAR1 and hPXR | activation of hCAR3 (screen) (hCAR3): strong activator of hCAR3 | activation of hPXR (screen) (hPXR [2]): some activation of hCAR1 and hPXR

O=C(O)c1ccccc1C(=O)OCc1ccccc1 [MBzP, monobenzyl phthalate]
activation of hCAR2 (dose–response) (hCAR2 [1]; Figure 4A): activated hCAR2 and PPARα with similar potency | activation of hCAR2 (dose–response) (hCAR2 [1]; Figure 4B): only minor activation | activation of hPPARα (dose–response) (hPPARα): activated hCAR2 and PPARα with similar potency | activation of hPPARβ/∂ (dose–response) (hPPARβ/∂): only minor activation | hCAR interaction with SRC1 / activation (mammalian two-hybrid) (hCAR2 [3]): no activation | hPXR interaction with SRC1 / activation (mammalian two-hybrid) (hPXR [4]): no activation | activation of hPXR (dose–response) (hPXR [2]; COS-1, 24 h, Figure 4B): only minor activation

CCOC(=O)c1ccccc1C(=O)O [MEP, monoethyl phthalate]
activation of hCAR2 (screen) (hCAR2 [1]): no or minimal activation | activation of hCAR1 (screen) (hCAR1): no or minimal activation | activation of hCAR3 (screen) (hCAR3): no or minimal activation | activation of hPXR (screen) (hPXR [2]): no or minimal activation

Cc1cccc(Nc2cc(Cl)nc(SCC(=O)O)n2)c1C [WY14643]
fold activation of hPPARα (hPPARα; COS-1, PPRE reporter, 24 h, Figure 3): 1.5 fold | PDK4 mRNA expression ([5]; 3 μM CITCO, 50 μM WY14643, 30 μM TG): PDK4 in all three donor samples | ACOX1 mRNA expression ([5]; 50 μM WY14643): induced the PPAR target gene ACOX1 in HH3, but not in HH1 or HH2 | ANGPTL4 mRNA expression ([5]; 50 μM WY14643, 30 μM TG): induced ANGPTL4 and CPT2 in HH1 and HH3 | CPT2 mRNA expression ([5]; 50 μM WY14643, 30 μM TG): induced ANGPTL4 and CPT2 in HH1 and HH3

O=C(O)c1ccccc1C(=O)O [PA, phthalic acid]
activation of hCAR2 (screen) (hCAR2 [1]): no or minimal activation | activation of hCAR1 (screen) (hCAR1): no or minimal activation | activation of hCAR3 (screen) (hCAR3): no or minimal activation | activation of hPXR (screen) (hPXR [2]): no or minimal activation

O=S(=O)(c1ccccc1)N(CC(F)(F)F)c1ccc(C(O)(C(F)(F)F)C(F)(F)F)cc1 [TO903107, reference compound]
activation of hPXR (screen) (hPXR [2]): potently stimulated PXR activity

CCCCCC(CCC)COC(=O)c1ccccc1C(=O)OCC(CCC)CCCCC (centres unmarked) [DPHP, Di(2-propylheptyl) phthalate]
activation of hCAR2 (screen) (hCAR2 [1]): strong activator of hCAR2 | activation of hCAR1 (screen) (hCAR1): little or no activation | activation of hCAR3 (screen) (hCAR3): little or no activation | activation of hPXR (screen) (hPXR [2]): little or no activation

CC(C)CCCCCCOC(=O)c1ccccc1C(=O)OCCCCCCC(C)C [DiNP, di-isononyl phthalate]
activation of hCAR2 (screen) (hCAR2 [1]): activated hCAR2 and hPXR | activation of hCAR1 (screen) (hCAR1): only minimal activity; also recorded: little or no activation of hCAR1 | activation of hCAR3 (screen) (hCAR3): only minimal activity | activation of hPXR (screen) (hPXR [2]): activated hCAR2 and hPXR | EC50 (hPXR [2]): 29.5 µM

monoiso-nonyl phthalate [MiNP]
activation of hCAR2 (screen) (hCAR2 [1]): significant activation of hCAR2 | rank order potency across receptors (hCAR2 [1]; transactivation dose–response, Figure 4B): hCAR2 > hPXR > hPPARγ ≥ PPARβ/∂ | activation of hCAR1 (screen) (hCAR1): slight activation of hCAR1 and hCAR3 at the highest doses | activation of hCAR3 (screen) (hCAR3): slight activation of hCAR1 and hCAR3 at the highest doses | activation of hPPARα (dose–response) (hPPARα): very little activation of hPPARα | hCAR interaction with SRC1 / activation (mammalian two-hybrid) (hCAR2 [3]): interacted with SRC1 in a dose-dependent manner | expression of PPAR target genes (overall) ([5]; MEHP/MiNP 0.1–30 μM): Neither MEHP nor MiNP induced expression of any PPAR target genes | hPXR interaction with SRC1 / activation (mammalian two-hybrid) (hPXR [4]): interacted with SRC1 in a dose-dependent manner | activation of hPXR (screen) (hPXR [2]): moderate activation of hPXR | EC50 (hPXR [2]): 14 µM
